Source: patent US9551711B2, “Compositions and methods for detecting nitration of PKG-1α and methods of use thereof” (Augusta University Research Institute, Inc., priority 2013, dated 2017)
Numbering of substitutions follows the chain as printed.

How the values were obtained:
PKG-1α [1] = molecular target: T1, PKG-1α (Homo sapiens, UniProt Q13976, Y247F); assay: PKG catalytic activity, Michaelis-Menten kinetics for cGMP; type: biochemical; set-up: made in house; host or cells: HEK-293T; details: Y247F mutant upon SIN-1 treatment
T1 sequence (Q13976 2-671 Y247F): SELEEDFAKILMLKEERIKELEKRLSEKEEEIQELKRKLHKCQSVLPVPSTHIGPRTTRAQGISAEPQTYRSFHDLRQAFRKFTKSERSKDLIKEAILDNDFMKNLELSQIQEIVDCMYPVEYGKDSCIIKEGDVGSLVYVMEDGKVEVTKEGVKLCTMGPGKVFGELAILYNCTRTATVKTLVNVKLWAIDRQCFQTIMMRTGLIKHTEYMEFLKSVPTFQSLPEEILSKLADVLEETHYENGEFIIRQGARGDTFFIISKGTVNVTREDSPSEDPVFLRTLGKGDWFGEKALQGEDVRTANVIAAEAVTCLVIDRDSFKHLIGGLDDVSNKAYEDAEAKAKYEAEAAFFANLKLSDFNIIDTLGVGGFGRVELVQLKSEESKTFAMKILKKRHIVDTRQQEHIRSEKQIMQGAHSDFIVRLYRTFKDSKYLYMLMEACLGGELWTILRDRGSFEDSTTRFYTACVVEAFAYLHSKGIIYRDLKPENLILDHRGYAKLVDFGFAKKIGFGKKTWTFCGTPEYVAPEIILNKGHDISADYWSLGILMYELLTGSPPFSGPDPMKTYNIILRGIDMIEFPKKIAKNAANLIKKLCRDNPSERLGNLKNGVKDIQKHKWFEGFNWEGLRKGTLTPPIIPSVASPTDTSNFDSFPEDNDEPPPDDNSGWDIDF
Method: (§1) Total PKG activity was determined using a non-radioactive immunoassay in cell lysates, according to the manufacturer's directions. Briefly, protein samples were diluted in kinase reaction buffer containing Mg^2+ and ATP (125 μM) in the presence or absence of 8-Br cGMP (10 μM) and incubated in a 96 well plate pre-coated with a PKG substrate containing threonine residues phosphorylated by PKG.
After incubation for 30 min at 30° C. to allow the phosphorylation of the bound substrate, an HRP conjugated anti-phosphothreonine specific antibody was added to convert a chromogenic substrate to a colorimetric substrate that was subsequently read spectrophotometrically at 450 nm. The change in absorbance reflected the relative activity of PKG in the sample. The results were reported as pmols of phosphate incorporated into the GST-G substrate fusion protein by active PKG in the sample in the presence or absence of cGMP (10 μM) per minute at 30° C. per μg of protein (pmol/min/μg). […] The kinetic constants were determined using nonlinear regression (curve fit) analysis (GraphPad Prism Software Inc.).
To determine the Michaelis-Menten constant (Km) for cGMP, the kinase assay was performed, as mentioned above; however, the cGMP concentration was titrated from 0-10 μM, while the ATP concentration remained constant at 125 μM.

PKG-1α [2] = molecular target: T2, PKG-1α (Homo sapiens, UniProt Q13976); assay: PKG activity in transfected PASMC; type: cell-based, lamb; set-up: an expression plasmid containing a full length WT-PKG-1α cDNA; expressed in transfected cells; host or cells: primary pulmonary artery smooth muscle cells (PASMC) from 4-week old lambs; details: PASMC transfected with WT-PKG-1α; SIN-1 500 μM, 48 h
T2 sequence (Q13976 2-671): T1 sequence (Q13976 2-671 Y247F) with F246Y
Method: Therefore, the effect of these events were investigated in PASMC transiently transfected with expression plasmids containing WT- and Y247F-PKG-1α. The effect of nitration on pulmonary arterial smooth muscle cell (PASMC) growth and metabolism was determined. PASMC were transiently transfected with expression plasmids containing WT-PKG-1α, Y247F-PKG-1α or pDEST40 (as a control) for 20 h. Cells were then exposed or not to SIN-1 (500 μM, 48 h) and the effect on PKG protein levels (FIG. 2A) and activity determined (FIG. 2B).
as §1
After incubation for 30 min at 30° C. to allow the phosphorylation of the bound substrate, an HRP conjugated anti-phosphothreonine specific antibody was added to convert a chromogenic substrate to a colorimetric substrate that was subsequently read spectrophotometrically at 450 nm. The change in absorbance reflected the relative activity of PKG in the sample. […] The kinetic constants were determined using nonlinear regression (curve fit) analysis (GraphPad Prism Software Inc.).

3-morpholinosydnonimine N-ethylcarbamide [SIN-1]
change of Michaelis-Menten constant (Km) for cGMP (PKG-1α [1]): no significant change
cGMP dependent increase in PKG activity (PKG-1α [2]): attenuated
